Measurements taken from ChEMBL document CHEMBL6134767, “Advances in antibacterial agents for Mycobacterium fortuitum” (2025).
Values after ≈ are worked out from the molar mass of the structure shown. Structures can show the parent of a compound that is named as a salt. Blank lines part the entries; values can stand above or below the compound they belong to.

Legend:
Format in all cases: functional
[1] = test system: Mycolicibacterium fortuitum; assay: Antibacterial activity against Mycobacterium fortuitum ATCC 6841 assessed as reduction in bacterial growth incubated for 72 hrs by Mueller-Hinton broth micro-dilution based assay
[2] = test system: Mycolicibacterium fortuitum; assay: Antibacterial activity against Mycobacterium fortuitum
[3] = test system: Mycolicibacterium fortuitum; assay: Antimycobacterial activity against Mycobacterium fortuitum ATCC 35931 assessed as reduction in bacterial growth
[4] = test system: Mycolicibacterium fortuitum; assay: Antibacterial activity against Mycobacterium fortuitum ATCC 6841 assessed as bacterial growth inhibition incubated for 72 hrs by CLSI protocol based micro-dilution method
[5] = test system: Mycolicibacterium fortuitum; assay: Antimycobacterial activity against Mycobacterium fortuitum ATCC 6841
[6] = test system: Mycolicibacterium fortuitum; assay: Antimycobacterial activity against Mycobacterium fortuitum ATCC 6841 assessed as reduction in microbial growth incubated for 72 hrs by resazurin dye based broth microdilution method
[7] = test system: Mycolicibacterium fortuitum; assay: Antimycobacterial activity against Mycobacterium fortuitum NCTC 10394 assessed as reduction in microbial growth incubated for 72 hrs by resazurin dye based broth microdilution method

Structure (SMILES): C[C@@H](N)CCCCCC/C=C\CCCCCCCCN
MIC [1]: 44 µM (≈ 12.4 µg/mL)

Structure (SMILES): CCCCCCCCCCCCCCCC(=O)O [PALMITIC ACID]
MIC [1]: 2 µM (≈ 0.513 µg/mL)

Structure (SMILES): CCCCN1C(=S)C(=O)c2ccccc21
MIC [2]: 32 µM (≈ 7.02 µg/mL)

Structure (SMILES): CC(=O)NC[C@H]1CN(c2ccc(N3CCOCC3)c(F)c2)C(=O)O1 [LINEZOLID]
MIC [4]: 23.7 µM (≈ 8 µg/mL)

Structure (SMILES): CN1C(=S)C(=O)c2ccccc21
MIC [2]: 63 µM (≈ 11.2 µg/mL)

Structure (SMILES): OCCCCCCCCN=C=S
MIC [2]: 20 µM (≈ 3.74 µg/mL)
MIC [5]: 21.4 µM (≈ 4 µg/mL)

Structure (SMILES): CCN(CC)CCCCOc1cc2oc3cc(OCCCCN(CC)CC)c(OC)c(CC=C(C)C)c3c(=O)c2c(OCCCCN(CC)CC)c1CC=C(C)C
MIC [3]: 15.8 µM (≈ 12.5 µg/mL)

Structure (SMILES): CC(=O)OCC1=CCc2c(cc(O)c3c(=O)cc(C)oc23)OC1
MIC [3]: 25.3 µM (≈ 8 µg/mL)

Structure (SMILES): CC(=O)O[C@@H]1[C@@H](OC(C)=O)[C@@H](O)[C@H](OC[C@]2(C)[C@@H](O)C[C@H](O)[C@]3(C)[C@H]4CC=C5[C@@H]6C[C@](C)(C(=O)O[C@@H]7O[C@@H](C)[C@H](O)[C@@H](O)[C@H]7O)CC[C@]6(C)CC[C@@]5(C)[C@]4(C)CC[C@@H]23)O[C@H]1C
MIC [2]: 27.9 µM (≈ 24.2 µg/mL)

Structure (SMILES): CC(=O)O[C@@H]1[C@@H](O)[C@@H](O)[C@H](OC[C@]2(C)[C@@H](O)C[C@H](O)[C@]3(C)[C@H]4CC=C5[C@@H]6C[C@](C)(C(=O)O)CC[C@]6(C)CC[C@@]5(C)[C@]4(C)CC[C@@H]23)O[C@H]1C
MIC [2]: 29.3 µM (≈ 19.8 µg/mL)

Structure (SMILES): c1ccc2c(c1)[I+]c1ccccc1-2 [DIPHENYLENEIODONIUM CHLORIDE]
MIC [5]: 0.4 µM

Structure (SMILES): COc1cc(/C=C/C2=NN(C(=N)N)C(c3cc(OC)c(OC)c(OC)c3)C2)cc(OC)c1OC (configuration not stated)
MIC [2]: 5.31 µM (≈ 2.5 µg/mL)

Structure (SMILES): CN(C)c1ncnc(SC(=S)N2CCCC2)c1[N+](=O)[O-]
MIC [5]: 4.98 µM (≈ 1.56 µg/mL)

Structure (SMILES): CCCCC/C=C\C/C=C\CCCCCCCC(=O)O [LINOLEIC ACID]
MIC [1]: 14.3 µM (≈ 4 µg/mL)

Structure (SMILES): N#Cc1cc([N+](=O)[O-])cnc1SC(=S)N1CCCCCC1
MIC [5]: 2.48 µM (≈ 0.8 µg/mL)

Structure (SMILES): C=C[C@@H](O)C#CC#C[C@@H](O)/C=C\CCCCCCC [FALCARINDIOL]
MIC [1]: 30.4 µM (≈ 7.92 µg/mL)

Structure (SMILES): CCN(CC)C(=S)Sc1ncc([N+](=O)[O-])cc1C#N
MIC [5]: 1.35 µM (≈ 0.4 µg/mL)

Structure (SMILES): CCOC(=O)/C=C\C(=O)c1ccc(C(C)(C)C)cc1
MIC [2]: 30.7 µM (≈ 8 µg/mL)

Structure (SMILES): N#Cc1cc([N+](=O)[O-])cnc1SC(=S)N1CCCCC1
MIC [5]: 5.05 µM (≈ 1.56 µg/mL)

Structure (SMILES): CCOC(=O)/C=C/C(=O)c1ccc(C(C)(C)C)cc1
MIC [2]: 15.4 µM (≈ 4 µg/mL)

Structure (SMILES): O=c1nc(N2CCN(CC3CCCCC3)CC2)sc2c([N+](=O)[O-])cc(C(F)(F)F)cc12 [MACOZINONE]
MIC [5]: 0.022 µM (≈ 0.01 µg/mL)

Structure (SMILES): CCCCCCCCCCC/C=C\C=C\C(O)CC(=O)O (configuration not stated)
MIC [1]: 0.11 µM (≈ 0.0326 µg/mL)

The remaining lines, values ahead:

MIC [2]: 0.44 µM (≈ 0.154 µg/mL)
Structure (SMILES): COc1ccc(/C=C/C2=NN(C(=N)N)C(c3ccc(OC)cc3)C2)cc1 (configuration not stated)

MIC [2]: 0.49 µM (≈ 0.156 µg/mL)
Structure (SMILES): Cc1ccccc1/C=C/C1=NN(C(=N)N)C(c2ccccc2C)C1 (configuration not stated)

MIC [3]: 29.3 µM (≈ 12.5 µg/mL)
Structure (SMILES): CC(C)N(CCOc1ccc(C(c2ccc(Cl)cc2)c2cccs2)cc1)C(C)C (configuration not stated)

MIC [2]: 7.35 µM (≈ 4 µg/mL)
Structure (SMILES): Cc1c(Cc2ccc(N3CCNCC3)cc2C(F)(F)F)cc(-c2ccc(Cl)cc2)n1-c1ccc(Cl)cc1

MIC [3]: 0.12 µM (≈ 0.0497 µg/mL)
Structure (SMILES): CC(=O)c1ccc2c3c4c(c(O)cc(C)c4c(O)c2c1O)C(=O)c1c(O)cc(C)cc1-3

MIC [5]: 0.12 µM (≈ 0.0226 µg/mL)
Structure (SMILES): Cc1cc(O)c2c(c1)C(=O)C=CC2=O [RAMENTACEONE]

MIC [2]: 0.54 µM (≈ 0.157 µg/mL)
Structure (SMILES): N=C(N)N1N=C(/C=C/c2ccccc2)CC1c1ccccc1 (configuration not stated)

MIC [2]: 63 µM (≈ 15.1 µg/mL)
Structure (SMILES): O=C1C(=S)N(c2ccccc2)c2ccccc21

MIC [6]: 0.61 µM
Structure (SMILES): CC(=O)NC[C@H]1CN(c2ccc(-c3ccc(-c4nnnn4C)nc3)c(F)c2)C(=O)O1

MIC [2]: 1.27 µM (≈ 0.4 µg/mL)
Structure (SMILES): C[C@@H](NC(=O)c1cc([N+](=O)[O-])cc([N+](=O)[O-])c1)c1ccccc1

MIC [7]: 72.7 µM
Structure (SMILES): O=c1ccc2nccc3c4ccccc4n1c23 [CANTHIN-6-ONE]

MIC [4]: 4.22 µM (≈ 2 µg/mL)
Structure (SMILES): CC(C)/N=c1\cc2n(-c3ccc(Cl)cc3)c3ccccc3nc-2cc1Nc1ccc(Cl)cc1 [CLOFAZIMINE]

MIC [2]: 16.8 µM (≈ 8.02 µg/mL)
Structure (SMILES): Cc1c(Cc2ccc(N3CCNCC3)cn2)cc(-c2ccc(Cl)cc2)n1-c1ccc(Cl)cc1

MIC [3]: 100 µM (≈ 93.5 µg/mL)
Structure (SMILES): O=S(=O)(O)c1ccc(-c2c3nc(c(-c4ccc(S(=O)(=O)O)cc4)c4ccc([nH]4)c(-c4ccc(S(=O)(=O)O)cc4)c4nc(c(-c5ccc(S(=O)(=O)O)cc5)c5ccc2[nH]5)C=C4)C=C3)cc1

MIC [7]: 5.2 µM
Structure (SMILES): CC(C)CCn1cc(NC(=O)c2ccc3[nH]c(C(=O)Nc4cc(C(=O)Nc5ccc(C(=O)NCCN(C)C)n5C)n(CCC(C)C)c4)cc3c2)cc1C(=O)Nc1cc(C(=O)NCCN(C)C)n(C)c1

MIC [6]: 1.17 µM
Structure (SMILES): COc1ncccc1Nc1cc2nc3ccccc3n(-c3ccc(OC(F)(F)F)cc3)c-2c/c1=N\C1CCC(OC)CC1 (configuration not stated)

MIC [7]: 59.5 µM
Structure (SMILES): C[n+]1c2ccccc2cc2[n-]c3ccccc3c21 [CRYPTOLEPINE HYDROCHLORIDE]

MIC [2]: 19.2 µM (≈ 8 µg/mL)
Structure (SMILES): Nc1ccc(-c2nc3cc(-c4ccc5[nH]c(-c6ccc(N)cc6)nc5c4)ccc3[nH]2)cc1

MIC [6]: 12.1 µM
Structure (SMILES): O=[N+]([O-])c1ccc(C2=NOC(c3ccc(N4CCC(Oc5ccc(OC(F)(F)F)cc5)CC4)cc3)C2)o1 (configuration not stated)
